Assay results as given in ChEMBL document CHEMBL3351996, “Carbonic anhydrase inhibitory activity of sulfonamides and carboxylic acids incorporating cyclic imide scaffolds” (Bioorg Med Chem Lett, 2014).

How the values were obtained:
[1] = molecular target: Carbonic anhydrase 9 (Homo sapiens, UniProt Q16790)
Description: Inhibition of human carbonic anhydrase 9 by stopped-flow CO2 hydrase assay

[2] = molecular target: Carbonic anhydrase 2 (Homo sapiens, UniProt P00918); assay: Inhibition of human carbonic anhydrase 2 by stopped-flow CO2 hydrase assay
[3] = molecular target: Carbonic anhydrase 1 (Homo sapiens, UniProt P00915); assay: Inhibition of human carbonic anhydrase 1 by stopped-flow CO2 hydrase assay
[4] = molecular target: Carbonic anhydrase 12 (Homo sapiens, UniProt O43570)
Carbonic anhydrase 12, sequence (O43570 whole entry): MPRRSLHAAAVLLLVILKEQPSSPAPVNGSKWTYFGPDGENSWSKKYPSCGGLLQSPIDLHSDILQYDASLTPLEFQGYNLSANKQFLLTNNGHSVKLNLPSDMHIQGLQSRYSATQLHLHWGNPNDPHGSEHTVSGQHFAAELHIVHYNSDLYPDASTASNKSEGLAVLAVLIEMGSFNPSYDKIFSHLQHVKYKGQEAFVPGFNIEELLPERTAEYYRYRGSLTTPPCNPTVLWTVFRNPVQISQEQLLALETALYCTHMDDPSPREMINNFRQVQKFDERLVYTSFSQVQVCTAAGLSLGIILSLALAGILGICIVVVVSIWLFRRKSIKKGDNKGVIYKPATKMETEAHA
Description: Inhibition of human carbonic anhydrase 12 by stopped-flow CO2 hydrase assay

Carbonic anhydrase 1, sequence (P00915 whole entry): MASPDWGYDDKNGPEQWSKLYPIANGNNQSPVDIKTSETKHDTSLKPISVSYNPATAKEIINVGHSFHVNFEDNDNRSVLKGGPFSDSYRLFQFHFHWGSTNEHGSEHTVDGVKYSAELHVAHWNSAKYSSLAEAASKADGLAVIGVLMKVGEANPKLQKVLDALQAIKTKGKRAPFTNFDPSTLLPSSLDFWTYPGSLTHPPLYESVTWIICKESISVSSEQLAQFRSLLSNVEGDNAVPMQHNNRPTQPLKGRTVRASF

NS(=O)(=O)c1ccc(N2C(=O)c3cccc4cccc(c34)C2=O)cc1
Ki [1]: 4.9 nM

O=C(O)c1ccc(N2C(=O)CCC2=O)cc1
Ki [2]: > 1000 nM
Ki [1]: 506 nM

NS(=O)(=O)c1ccc(CN2C(=O)c3nccnc3C2=O)cc1
Ki [1]: 5.9 nM

Cc1ccc2c(c1)C(=O)N(Cc1ccc(S(N)(=O)=O)cc1)C2=O
Ki [2]: 26.2 nM
Ki [1]: 5.9 nM
Ki [3]: 21.8 nM
Ki [4]: 0.85 nM

NS(=O)(=O)c1ccc(N2C(=O)[C@H]3CC=CC[C@H]3C2=O)cc1
Ki [2]: 4.8 nM
Ki [1]: 4.4 nM
Ki [3]: 31.2 nM
Ki [4]: 0.57 nM

Cc1ccc2c(c1)C(=O)N(c1ccc(S(N)(=O)=O)cc1)C2=O
Ki [1]: 3.3 nM

NS(=O)(=O)c1ccc(CN2C(=O)c3ccccc3C2=O)cc1
Ki [1]: 4.1 nM

Cc1ccc2c(c1)C(=O)N(c1ccc(C(=O)O)cc1)C2=O
Ki [2]: > 1000 nM
Ki [1]: 350 nM

NS(=O)(=O)c1ccc(CN2C(=O)CCC2=O)cc1
Ki [1]: 29.3 nM

CC(C)(C)c1ccc2c(c1)C(=O)N(c1ccc(S(N)(=O)=O)cc1)C2=O
Ki [1]: 2.4 nM

NS(=O)(=O)c1ccc(CN2C(=O)c3c(Cl)c(Cl)c(Cl)c(Cl)c3C2=O)cc1
Ki [1]: 3.1 nM

NS(=O)(=O)c1ccc(N2C(=O)c3ccccc3C2=O)cc1
Ki [1]: 3.8 nM

NS(=O)(=O)c1ccc(N2C(=O)CCC2=O)cc1
Ki [1]: 10.8 nM

NS(=O)(=O)c1ccc(CN2C(=O)[C@H]3CC=CC[C@H]3C2=O)cc1
Ki [1]: 2.6 nM

CC(C)(C)c1ccc2c(c1)C(=O)N(c1ccc(C(=O)O)cc1)C2=O
Ki [2]: > 1000 nM
Ki [1]: 428 nM

O=C(O)c1ccc(N2C(=O)c3ccc([N+](=O)[O-])cc3C2=O)cc1
Ki [2]: > 1000 nM
Ki [3]: > 1000 nM

O=C(O)c1ccc(N2C(=O)c3cc(Cl)c(Cl)cc3C2=O)cc1
Ki [2]: > 1000 nM
Ki [1]: 41.6 nM

NS(=O)(=O)c1ccc(N2C(=O)c3nccnc3C2=O)cc1
Ki [1]: 2.9 nM

O=C(O)c1ccc(N2C(=O)c3ccccc3C2=O)cc1
Ki [2]: 166 nM
Ki [1]: 4.9 nM
Ki [3]: 30.2 nM
Ki [4]: 18.7 nM

O=C(O)c1ccc(N2C(=O)c3c(Cl)c(Cl)c(Cl)c(Cl)c3C2=O)cc1
Ki [2]: > 1000 nM
Ki [1]: 4.4 nM

O=C(O)c1ccc(N2C(=O)c3nccnc3C2=O)cc1
Ki [2]: > 1000 nM
Ki [1]: 22.1 nM
Ki [3]: > 1000 nM

O=C(O)c1ccc(N2C(=O)c3cccc4cccc(c34)C2=O)cc1
Ki [2]: > 1000 nM
Ki [1]: 5.9 nM
Ki [3]: > 1000 nM
Ki [4]: 1.2 nM

NS(=O)(=O)c1ccc(CN2C(=O)c3cccc4cccc(c34)C2=O)cc1
Ki [1]: 4.6 nM
